Test results from paper PMC11784145, “Efficacy and in vitro pharmacological assessment of novel N-hydroxypyridinediones as hepatitis B virus ribonuclease H inhibitors” (Antimicrobial Agents and Chemotherapy, 2024).
Several values for one entry are separate records, joined by “and”; a condition that tells them apart may be missing. Equal values may be shown once.

Tests used:
[1] = molecular target: T1, human ribonuclease H1 (huRNase H1) (Homo sapiens, UniProt O60930); test: Human RNase H1 inhibition, fluorescent biochemical assay
T1 construct: made in house; host or cells: Escherichia coli
T1 sequence (O60930 1-286): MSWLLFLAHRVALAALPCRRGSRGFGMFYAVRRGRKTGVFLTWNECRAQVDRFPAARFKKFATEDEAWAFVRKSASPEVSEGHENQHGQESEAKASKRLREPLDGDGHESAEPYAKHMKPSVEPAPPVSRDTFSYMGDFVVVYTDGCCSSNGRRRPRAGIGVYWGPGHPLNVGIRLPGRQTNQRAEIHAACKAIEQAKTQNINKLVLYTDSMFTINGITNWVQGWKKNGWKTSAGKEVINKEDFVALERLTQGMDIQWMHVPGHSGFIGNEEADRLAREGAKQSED
Protocol: Recombinant human ribonuclease H1 (huRNase H1) was expressed in Escherichia coli and purified by nickel affinity chromatography, as described previously ([30]). […] The heteroduplex substrate was prepared, as described by Ponzar et al. ([30]). Reactions were initiated by the addition of MgCl2 (5 mM final) and were performed on a Biotek Synergy HTX multi-mode plate reader at 28°C.
Maximum rates of fluorescence increase were calculated using the Biotek Gen5 v3.15 software and percentage activity was determined for each compound concentration by subtracting rates from no enzyme reactions and normalizing to DMSO reactions. […] Reactions were performed at least three times on separate days.

Microsome stability = type: in vitro ADME, human
[2] = test system: HBV replication (HBV plus-polarity DNA strand); test: HBV replication inhibition, strand preferential qPCR in hepDES19 cells; type: cell-based, hepatitis B virus; settings: for EC50: 72 h exposure, HBV plus-polarity strand suppression, highest concentration tested 100 µM, mean ± SD, read-out: HepDES19 EC50
Protocol: HBV replication inhibition was measured in hepDES19 cells following 72 h compound exposure without compound replenishment. EC50 values were determined by HBV plus-polarity strand suppression using a strand preferential qPCR assay, as described previously ([28]). Three or more replicate values were obtained on different days.

plasma proteins = test: Plasma protein binding, rapid equilibrium dialysis; type: in vitro ADME, bovine; settings: 10 µM compound, DMEM-F12 with 10% FBS (0.25 mg/mL BSA), 4 h, 37°C
Protocol: Plasma protein binding was performed using the Pierce rapid equilibrium dialysis device (Thermo Fisher) per the manufacturer’s instructions, as described ([27]). Briefly, the sample wells contained DMEM-F12 supplemented with 10% FBS spiked with 10 µM compound, and the buffer wells contained phosphate-buffered saline (PBS). The plate was incubated for 4 h at 37°C with shaking, after which 50 µL was retrieved from the buffer and sample wells and added to ice-cold acetonitrile and the internal standard described above. Samples were matrix-matched with PBS supplemented with 10% FBS or PBS alone, respectively, and centrifuged at 4,000 × g for 5 min to pellet plasma proteins. The supernatants were analyzed by LCMS/MS and percent compound bound was determined, as described previously ([27]).

MDCK-MDR1 cells = test: MDCK-MDR1 permeability assay; type: in vitro ADME; settings: 10 µM compound, 2 h; for Efflux Ratio (Papp B-A/A-B): MDCK-MDR1 cells, actively effluxed if >2
Protocol: MDCK-MDR1 cells were seeded on 96-well, high protein binding immobilon-P membrane plates (Millipore Sigma) at 2.4 × 10^4 cells per well for 4 days. Media were then decanted, and the cells were equilibrated with Hanks balanced salt solution (HBSS) supplemented with 10 mM CaCl2 and 1 mM MgCl2 for 1 h. Compound (10 µM) was then added to the apical side to assess active transport and to the basolateral side to assess active efflux. The cells were incubated with compound for 2 h with shaking at 37°C. Samples (50 µL) were retrieved from the recipient wells and mixed with 150 µL acetonitrile (ACN) and internal standard (1:1 of 200 ng/mL chloridazon:enalapril). Samples were pelleted at 4,000 × g and the supernatant was analyzed by liquid-chromatography/tandem mass spectrometry (LCMS/MS) analyses. […]. Active efflux was determined by Papp B/A/Papp A/B.
Tight junction formation was assessed by lucifer yellow permeation immediately following sample retrieval. Briefly, lucifer yellow (10 µM) was added to the apical wells and HBSS was added to the basolateral wells for 1 h with shaking at 37°C, after which sample was collected from the basolateral side and read on a Biotek Synergy HTX multi-mode plate reader with 485/20 excitation and 520/20 emission filters defined by the Center Wavelength/band-pass values. The percent lucifer yellow fluorescence was determined by subtracting the HBSS relative fluorescent units (RFU) from the sample RFU and normalizing to the lucifer yellow positive control RFU. Lucifer yellow permeation was determined to be acceptable if ≤3%.

[3] = Solubility limit, turbidimetric assay; type: physicochemical; settings: upper limit 200 µM
Protocol: Solubility limits were determined by a turbidimetric assay, as described ([27]), with the solubility limit being defined as the compound concentration where light scattering began to rise. Two or more replicate assays were performed for each compound at each pH on different days.

HepDES19 cells = settings: read-out: HepDES19 CC50; 72 h, MTS; highest concentration tested 100 µM; mean ± SD
CYP3A4 mRNA expression = test: CYP3A4 induction, RT-qPCR in HepG2 cells; settings: 10 µM, 24 or 48 h, normalized to GAPDH and DMSO
Protocol: HepG2 cells were seeded on 12-well, tissue-culture-treated plates (Sarstedt) at 2.5 × 10^5 cells/well for 24 h. Cells were treated with 10 µM compound or 1% DMSO for 48 h with replenishment at 24 h. Cells were rinsed with PBS and lysed at 0, 24, and 48 h using TRI Reagent (Sigma Aldrich). […] Cellular DNA was degraded using DNase I (Invitrogen), according to the manufacturer’s instructions.
Complementary DNA (cDNA) synthesis employed the ProtoScript II First Strand cDNA Synthesis Kit (New England Biolabs) according to the manufacturer’s instructions with an additional incubation step at 25°C for 5 min. Reverse transcriptase-qPCR (RT-qPCR) was performed using a Quantstudio 5 (Thermo Fisher) in a final reaction volume of 20 µL with 4 µL cDNA template, 2× KAPA probe force master mix (Roche), 300 nM probe, and 100 nM forward and reverse primer. CYP3A4 expression was determined by normalizing the experimental sample cycle threshold values to DMSO-treated wells. GAPDH was used as a housekeeping gene.

[4] = Parallel artificial membrane permeability assay (PAMPA); type: in vitro ADME
Protocol: Compound Papp values were determined by normalizing the experimental compound absorbance to the compounds’ absorbances at equilibrium, membrane porosity, buffer volume, and time (s). Two or more replicate assays were obtained on separate days for each pH.

CYP3A4 = molecular target: T2, CYP3A4 (Homo sapiens, UniProt P08684); test: Cytochrome P450 inhibition, Vivid 3A4 DBOMF Green kit; type: in vitro ADME; settings: 10 µM compound
T2 construct: purchased Thermo Fisher Vivid 3A4 DBOMF Green
T2 sequence (P08684 whole entry): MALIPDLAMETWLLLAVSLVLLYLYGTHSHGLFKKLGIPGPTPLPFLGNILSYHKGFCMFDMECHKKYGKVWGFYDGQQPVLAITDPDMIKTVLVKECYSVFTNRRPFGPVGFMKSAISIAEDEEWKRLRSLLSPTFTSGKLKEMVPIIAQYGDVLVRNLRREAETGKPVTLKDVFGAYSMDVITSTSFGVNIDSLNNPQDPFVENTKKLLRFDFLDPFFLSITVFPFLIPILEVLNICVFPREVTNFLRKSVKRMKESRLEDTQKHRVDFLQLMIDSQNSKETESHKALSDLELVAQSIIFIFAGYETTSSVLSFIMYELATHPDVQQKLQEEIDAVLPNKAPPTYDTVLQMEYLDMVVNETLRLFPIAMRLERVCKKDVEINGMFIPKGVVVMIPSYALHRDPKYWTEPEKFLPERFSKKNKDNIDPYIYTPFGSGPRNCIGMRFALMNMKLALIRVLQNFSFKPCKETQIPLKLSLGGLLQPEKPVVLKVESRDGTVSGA
Protocol: (§1) Compound inhibition of Cytochrome P (CYP) 3A4, 2C9, and 2D6 was determined using Vivid CYP450 screening kits (Thermo Fisher) according to the manufacturer’s instructions, as described previously ([27]). The kits employed were: Vivid 3A4 DBOMF Green, 2C9 BOMF Green, and 2D6 EOMCC Blue. Reactions were initiated by addition of the fluorophore-conjugated substrates with Vivid NADP^+ and were conducted at 37°C using either a Biotek Synergy HTX multi-mode plate reader with 485/20 nm excitation and 520/20 nm emission filters (green-fluorescent substrate), or a Tecan Spark plate reader with monochromator settings at 415/20 nm excitation and 460/20 nm emission (blue-fluorescent substrate) defined by the Center Wavelength/band-pass values. Substrate cleavage was detected every 60 s.
(§2) Compounds were initially screened against each enzyme at 10 µM and maximum rates of fluorescence in RFU were calculated using the Biotek Gen5 v3.11 software. Percent inhibition of experimental compound reactions was normalized to the rate to DMSO vehicle reactions. Positive controls used were: CYP3A4—ketoconazole (Sigma Aldrich), CYP2C9—sulfaphenazole (Cayman Chemical), and CYP2D6—quinidine (Fisher Scientific). […] IC50 values were determined using the four-parameter log[inhibitor] versus response algorithm in GraphPad Prism. […]

CYP2C9 = molecular target: T3, CYP2C9 (Homo sapiens, UniProt P11712); test: Cytochrome P450 inhibition, Vivid 2C9 BOMF Green kit; type: in vitro ADME; settings: 10 µM compound
T3 construct: purchased Thermo Fisher Vivid 2C9 BOMF Green
T3 sequence (P11712 whole entry): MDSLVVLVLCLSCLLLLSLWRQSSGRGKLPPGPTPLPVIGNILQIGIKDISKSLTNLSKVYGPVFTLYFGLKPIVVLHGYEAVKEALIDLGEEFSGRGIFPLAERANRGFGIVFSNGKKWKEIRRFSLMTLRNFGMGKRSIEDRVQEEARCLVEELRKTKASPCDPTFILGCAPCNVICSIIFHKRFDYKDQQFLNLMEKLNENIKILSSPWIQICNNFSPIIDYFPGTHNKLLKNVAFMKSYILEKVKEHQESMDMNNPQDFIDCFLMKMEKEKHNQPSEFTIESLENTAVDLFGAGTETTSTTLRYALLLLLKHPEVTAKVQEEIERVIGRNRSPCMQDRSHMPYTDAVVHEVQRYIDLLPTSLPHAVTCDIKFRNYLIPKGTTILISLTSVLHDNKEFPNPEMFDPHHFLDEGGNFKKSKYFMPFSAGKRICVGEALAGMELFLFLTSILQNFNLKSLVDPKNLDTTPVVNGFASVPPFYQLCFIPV
Protocol: as §1, §2

[5] = human liver microsomes, 1 µM compound, 30 min, NADPH
[6] = pH 5 (fed simulated intestinal fluid)
[7] = pH 6.5 (fasted simulated intestinal fluid)

SMILES	HepDES19 SI (CC50/EC50) [2]	EC50 [2]	Efflux Ratio (Papp B-A/A-B) (MDCK-MDR1 cells)	Average Sol (solubility limit) [3, 6]	Sol 1 (solubility limit) ([3]; pH 5, replicate 1)	Sol 2 (solubility limit) ([3]; pH 5, replicate 2)	Average Sol (solubility limit) [3, 7]	Sol 1 (solubility limit) ([3]; pH 6.5, replicate 1)	Sol 2 (solubility limit) ([3]; pH 6.5, replicate 2)	Average Sol (solubility limit) ([3]; pH 7.4 (DMEM-F12 with 10% FBS))	Sol 1 (solubility limit) ([3]; pH 7.4, replicate 1)	Sol 2 (solubility limit) ([3]; pH 7.4, replicate 2)	CC50 (HepDES19 cells)	Avg Papp (PAMPA) ([4]; FeSSIF pH 5)	Interpretation (PAMPA Papp) ([4]; FeSSIF pH 5)	Papp 1 (PAMPA) ([4]; FeSSIF pH 5, replicate 1)	Papp 2 (PAMPA) ([4]; FeSSIF pH 5, replicate 2)	Avg Papp (PAMPA) ([4]; pH 7.4)	Interpretation (PAMPA Papp) ([4]; pH 7.4)	Papp 2 (PAMPA) ([4]; pH 7.4, replicate 2)	further results
CC(=NOCc1cccc(C)c1)c1c(C)cc(=O)n(O)c1O [Compound 1620]	526	190 ± 87 nM	1.39	> 200 µM	> 200 µM	> 200 µM	> 200 µM	> 200 µM	> 200 µM	> 200 µM	> 200 µM	> 200 µM	> 100 µM	1.89e-05 cm/s	H (H: Papp > 1*10-6)	2.29e-05 cm/s	1.49e-05 cm/s	1.38e-06 cm/s	H (H: Papp > 1*10-6)	1.38e-06 cm/s	Selectivity of HBV replication inhibition over huRNase H1 (huRNase H1 IC50 versus HBV EC50) [1]: at least 10 fold; Intrinsic clearance (Clint) rate category (Microsome stability; human liver microsomes): low (low Clint (µL/min/mg protein) rates (<8.6)); Clearance (intrinsic clearance, Clint) (Microsome stability; [5]): 7.00 µL/min/mg; Half-life (Microsome stability; [5]): >30 min; Percent bound (plasma proteins): 85.8 ± 13.2%; MDCK-MDR1 Papp category, apical to basolateral (A-B) (MDCK-MDR1 cells): high (high (≥1*10^−6 cm/s)); MDCK-MDR1 Papp category, basolateral to apical (B-A) (MDCK-MDR1 cells): high (high (≥1*10^−6 cm/s)); CYP3A4 mRNA expression increase (CYP3A4 mRNA expression): < 2 fold; Papp 1 (PAMPA) ([4]; pH 7.4, replicate 1): 1.38e-06 cm/s
CC(=NOCc1ccc(OCc2ccc3ccccc3c2)cc1)c1c(C)cc(=O)n(O)c1O [Compound 1899]	40.7	1920 ± 700 nM	2.28 and > 2	> 200 µM	> 200 µM	> 200 µM	> 200 µM	> 200 µM	> 200 µM	> 200 µM	> 200 µM	> 200 µM	68.6 ± 24.3 µM	5.61e-06 cm/s	H (H: Papp > 1*10-6)	6.93e-06 cm/s	4.29e-06 cm/s	1.84e-06 cm/s	H (H: Papp > 1*10-6)	1.08e-06 cm/s	Clearance (intrinsic clearance, Clint) (Microsome stability; human, microsomes): 35.6 µL/min/mg; Half-life (Microsome stability; human, microsomes): 29.6 min; Percent inhibition of CYP3A4 (CYP3A4): ~ 42%; Percent inhibition of CYP2C9 (CYP2C9): 46%; Papp 1 (PAMPA) ([4]; PAMPA, pH 7.4): 2.28e-06 cm/s; Papp 3 (PAMPA) ([4]; pH 7.4, replicate 3): 2.16e-06 cm/s
